Source: US20060210625A1, “Sustained release of positively charged pharmacologically active molecules from a matrix containing polymers with polarized oxygen atoms” (Shire Laboratories, Inc., priority 2003, published 2006)

Test: Viscosity of HPMC K4M solution with trospium chloride (Brookfield viscometer)
Assay type: physicochemical
Conditions: S18 spindle
Method: Applicants have discovered that a certain interaction occurs between polarized oxygen atom containing-polymers and positively charged molecules, such as trospium chloride, which is exemplified by the dramatic change in viscosity of, for instance, an HPMC K4M solution when a drug in solution is added to it. An HPMC K4M solution was prepared and diluted to 2% by weight (or “w/w”) with either a trospium chloride solution or water. […] Without being bound to any particular theory, it is believed that this interaction leads to a slowed release of the active agent, and thus for the first time controlled release, once-daily formulations of highly water-soluble compounds can be made with relative ease.
In order to examine the interaction of trospium chloride with HPMC K4M polymer, viscosity of HPMC K4M was measured at a polymer concentration of 2% w/w at room temperature. Also examined was a 2% w/w solution of HPMC K4M containing trospium chloride at a final concentration of 16.7% w/w.
Viscosity was measured using a Brookfield viscometer fitted with an S18 spindle. Viscosity was measured at two spindle speeds. […] The contribution of the trospium chloride solution viscosity on the viscosity of the HPMC K4M solution is negligible.

O=C(O[C@H]1C[C@H]2CC[C@@H](C1)[N+]21CCCC1)C(O)(c1ccccc1)c1ccccc1 [trospium chloride]
viscosity of the HPMC K4M solution in the presence of the drug as compared to HPMC K4M solution without the drug (2% w/w HPMC K4M, trospium chloride 16.7% w/w, room temperature, two spindle speeds): more than doubled
contribution of the trospium chloride solution viscosity on the viscosity of the HPMC K4M solution (Brookfield viscometer): negligible
